Measurements from paper PMC12598805, “Crystal Structure–Activity Relationship of Some MeO Phenylacrylonitriles: Dual Antimicrobial–Cytotoxic Effects and in Silico Perspectives” (ChemistryOpen, 2025).
Values after ≈ are worked out from the molar mass of the structure shown.

Legend:
Assay type in all cases: cell-based
[1] = tested on: Bacillus subtilis (ATCC-19659); test: Broth microdilution MIC; details: ATCC19659, B.subtilis, read-out: MIC
Procedure: (§1) ATCC: American Type Culture Collection; NRRL: Northern Regional Research Laboratory The compounds 2(a-c) obtained could only be completely solubilised with dimethyl sulphoxide (DMSO) and the highest possible stock solutions of 50 mg.mL-1 were prepared. […]
(§2) 3.1. Determination of Minimum Inhibition Concentration (MIC)
(§3) The minimum inhibition concentration (MIC) values of the compounds 2(a-c) against the test bacteria used in the study were determined according to the broth microdilution method.[1-2] MHB or SDB was used as test medium and bacterial and yeast suspensions were prepared at 0.5 Mc Farland concentration for each test bacteria. Double layer serial dilutions were prepared in "U" type 96-well microtiter plates. Medium+bacteria suspensions containing only medium in the first row, medium+bacteria in the second row and the final concentrations of the synthesised substances in the other rows between 25 mg.mL-1 and […] were added to the wells with a final volume of 200
(§4) μL. Ampicillin, Kanamycin and Amphotericin B standard antibiotics were used as positive controls.
(§5) Bacteria were incubated at 37±0.1 °C and C. albicans at 30±0.1 °C for 24-48 hours and the lowest concentration without growth was determined as MIC. Tests were performed in two parallel runs and mean values were given as a result. […]

[2] = tested on: Escherichia coli (ATCC 25922); test: MBC by sub-culture from wells without growth; details: ATCC25922, E.coli
Procedure: (§6) Escherichia coli (ATCC 25922) […]
as §1, §2, §3, §4, §5

[3] = tested on: Bacillus cereus (ATCC-10876); test: MBC by sub-culture from wells without growth; details: Bacillus cereus, ATCC10876; B.cereus; read-out: MBC
Procedure: Bacillus cereus (ATCC-10876) […]
as §1, §2, §3, §4
Bacteria were incubated at 37±0.1 °C and C. albicans at 30±0.1 °C for 24-48 hours and the lowest concentration without growth was determined as MIC. Tests were performed in two parallel runs and mean values were given as a result. In order to estimate “the minimum bactericidal/fungicidal concentrations (MBC/MFC) of the synthesised acrylonitrile derivatives “needed to indicate […] killing of the original inoculum,” 10 μl was taken from the wells with no observed growth and further sub-cultured onto their agar media (MHA and SDA for bacterial and fungal strains, respectively).[3] […]

[4] = tested on: Escherichia coli (ATCC 25922); test: Agar diffusion, zone of inhibition; details: compounds at 50 mg mL^−1; for zone of inhibition: E.coli; for zone of inhibition at 50 mg/mL: Escherichia coli, ATCC25922, E.coli
Source text: The antibacterial and antifungal activities were reported utilizing the method described by the Clinical & Laboratory Standards Institute.^[ [31], [32] ^] Agar diffusion method was used to determine the antimicrobial activity of the synthesized substances. The media used were mueller hinton agar (MHA) for bacteria and sabouraud‐dextrose agar (SDA) for fungi (Merck), as recommended by the manufacturer.
The synthesized compounds were initially investigated for their antimicrobial activity to elucidate the potential therapeutic utility against various pathogenic microbes using the agar plate diffusion method. The compounds were tested at a concentration of 50 mg mL^−1, and the antibiotics (ampicillin, kanamycin, and amphotericin B) were used at 5 mg mL^−1. […] K.pneumoniae and B.cereus were resistant to ampicillin, while they were susceptible to kanamycin with inhibition values of 30 and 26 mm, respectively. No antimicrobial activity of the compounds was observed against E.faecalis, S.typhimurium, K.pneumoniae, and for the fungus compared to Amphotericin B (20 mm). […]
as §6
ATCC: American Type Culture Collection; NRRL: Northern Regional Research Laboratory The compounds 2(a-c) obtained could only be completely solubilised with dimethyl sulphoxide (DMSO) and the highest possible stock solutions of 50 mg.mL-1 were prepared. To these wells 50 μl of the previously prepared substances were transferred using sterile micropipette tips. For comparison, Ampicillin and kanamycin antibiotics for bacteria and Amphotericin B antibiotics for fungus were used as positive controls and DMSO was used as negative control. The prepared petri plates were kept at +4°C for about 1 hour and then the bacterial cultures were incubated at 37°C for 18-24 hours and mould cultures at 27-30°C for 48-72 hours. The zones formed were measured millimetrically with callipers. The experiments were performed with three repetitions. […]

Row | MIC [1] [mg/mL] | SMILES | MBC [2] [mg/mL] | MBC [3] [mg/mL] | zone of inhibition [4] [mm] | zone of inhibition at 50 mg/mL [4] [mm]
1 | 25 (≈ 106 mM) | COc1ccc(C=C(C#N)c2ccccc2)cc1 [2a, 3‐(4‐methoxyphenyl)‐2‐phenylacrylonitrile] | 5 (≈ 21.3 mM) | 12.5 (≈ 53.1 mM) | 13 ± 0.71 | 13
2 | 25 (≈ 98.7 mM) | COc1ccc(/C=C(\C#N)c2ccc(F)cc2)cc1 [2b] |  | 12.5 (≈ 49.4 mM) | 12 ± 1.41 | 12
3 | 25 (≈ 67.3 mM) | COc1ccc(/C=C(\C#N)c2cc(C(F)(F)F)cc(C(F)(F)F)c2)cc1 [2c] |  | 12.5 (≈ 33.7 mM) | 13 ± 0 | 13
